≈ marks a conversion by molar mass, not a printed value.
What was measured:
Type in all cases: functional
Staphylococcus aureus [1] = test: Antibacterial activity against methicillin-resistant Staphylococcus aureus ATCC 43300 by standard broth microdilution method
Streptococcus pyogenes [2] = test: Antibacterial activity against erythromycin resistant Streptococcus pyogenes R1 by standard broth microdilution method
Streptococcus pneumoniae [3] = test: Antibacterial activity against erythromycin-resistant Streptococcus pneumoniae AB11 expressing ermB and me/A genes by standard broth microdilution method
Pseudomonas aeruginosa = test: Antibacterial activity against penicillin-susceptible Pseudomonas aeruginosa ATCC 27853 by standard broth microdilution method
Staphylococcus aureus [4] = test: Antibacterial activity against erythromycin-susceptible Staphylococcus aureus ATCC 25923 by standard broth microdilution method
Escherichia coli = test: Antibacterial activity against penicillin-susceptible Escherichia coli ATCC 25922 by standard broth microdilution method
Streptococcus pneumoniae [5] = test: Antibacterial activity against erythromycin-resistant Streptococcus pneumoniae B1 expressing ermB gene by standard broth microdilution method
Bacillus subtilis = test: Antibacterial activity against penicillin-susceptible Bacillus subtilis ATCC 9372 by standard broth microdilution method
Streptococcus pyogenes [6] = test: Potency index, ratio of MIC of CAM to MIC of compound for antibacterial activity against erythromycin resistant Streptococcus pyogenes R1
Streptococcus pyogenes [7] = test: Potency index, ratio of MIC of AZM to MIC of compound for antibacterial activity against erythromycin resistant Streptococcus pyogenes R1

| Structure (SMILES) | MIC (Staphylococcus aureus [1]) [µg/mL] | MIC (Streptococcus pyogenes [2]) [µg/mL] | MIC (Streptococcus pneumoniae [3]) [µg/mL] | MIC (Pseudomonas aeruginosa) [µg/mL] | MIC (Staphylococcus aureus [4]) [µg/mL] | MIC (Escherichia coli) [µg/mL] | MIC (Streptococcus pneumoniae [5]) [µg/mL] | MIC (Bacillus subtilis) [µg/mL] | Ratio (Streptococcus pyogenes [6]) | Ratio (Streptococcus pyogenes [7]) |
| --- | --- | --- | --- | --- | --- | --- | --- | --- | --- | --- |
| CC[C@H]1OC(=O)[C@H](C)C(=O)[C@H](C)[C@@H](O[C@H]2O[C@@H](C)C[C@@H](N(C)C)[C@@H]2O)[C@](C)(OC)C[C@@H](C)C(=O)[C@H](C)[C@@H](OC(=O)NCCn2cc(-c3ccccc3)nn2)[C@]1(C)O | > 256 | 256 (≈ 319 µM) | 256 (≈ 319 µM) | 128 (≈ 160 µM) | 32 (≈ 39.9 µM) | > 128 | 256 (≈ 319 µM) | 8 (≈ 9.98 µM) |  |  |
| CCCc1ccc(-c2cn(CCNC(=O)O[C@@H]3[C@@H](C)C(=O)[C@H](C)C[C@@](C)(OC)[C@H](O[C@H]4O[C@@H](C)C[C@@H](N(C)C)[C@@H]4O)[C@@H](C)C(=O)[C@@H](C)C(=O)O[C@H](CC)[C@@]3(C)O)nn2)cc1 | 256 (≈ 303 µM) | 64 (≈ 75.8 µM) | 128 (≈ 152 µM) | 128 (≈ 152 µM) | 32 (≈ 37.9 µM) | > 128 | 256 (≈ 303 µM) | 8 (≈ 9.48 µM) |  |  |
| CC[C@H]1OC(=O)[C@H](C)C(=O)[C@H](C)[C@@H](O[C@H]2O[C@@H](C)C[C@@H](N(C)C)[C@@H]2O)[C@](C)(OC)C[C@@H](C)C(=O)[C@H](C)[C@@H](OC(=O)NCCn2cc(-c3ccc(F)cc3)nn2)[C@]1(C)O | > 256 | 64 (≈ 78.1 µM) | 128 (≈ 156 µM) | 128 (≈ 156 µM) | 16 (≈ 19.5 µM) | > 128 | 256 (≈ 312 µM) | 4 (≈ 4.88 µM) |  |  |
| CC[C@H]1OC(=O)[C@H](C)C(=O)[C@H](C)[C@@H](O[C@H]2O[C@@H](C)C[C@@H](N(C)C)[C@@H]2O)[C@](C)(OC)C[C@@H](C)C(=O)[C@H](C)[C@@H](OC(=O)NCCn2cc(-c3cccc([N+](=O)[O-])c3)nn2)[C@]1(C)O | > 256 | 64 (≈ 75.6 µM) | 128 (≈ 151 µM) | 128 (≈ 151 µM) | 8 (≈ 9.45 µM) | > 128 | 256 (≈ 302 µM) | 4 (≈ 4.72 µM) |  |  |
| CCOc1ccc(-c2cn(CCNC(=O)O[C@@H]3[C@@H](C)C(=O)[C@H](C)C[C@@](C)(OC)[C@H](O[C@H]4O[C@@H](C)C[C@@H](N(C)C)[C@@H]4O)[C@@H](C)C(=O)[C@@H](C)C(=O)O[C@H](CC)[C@@]3(C)O)nn2)cc1 | > 256 | 128 (≈ 151 µM) | 256 (≈ 303 µM) | 128 (≈ 151 µM) | 16 (≈ 18.9 µM) | > 128 | > 256 | 16 (≈ 18.9 µM) |  |  |
| CC[C@H]1OC(=O)[C@H](C)C(=O)[C@H](C)[C@@H](O[C@H]2O[C@@H](C)C[C@@H](N(C)C)[C@@H]2O)[C@](C)(OC)C[C@@H](C)C(=O)[C@H](C)[C@@H](OC(=O)NCCn2cc(-c3cccc(Cl)c3)nn2)[C@]1(C)O | 256 (≈ 306 µM) | 64 (≈ 76.5 µM) | 128 (≈ 153 µM) | 128 (≈ 153 µM) | 8 (≈ 9.56 µM) | > 128 | 128 (≈ 153 µM) | 4 (≈ 4.78 µM) |  |  |
| CC[C@H]1OC(=O)[C@H](C)C(=O)[C@H](C)[C@@H](O[C@H]2O[C@@H](C)C[C@@H](N(C)C)[C@@H]2O)[C@](C)(OC)C[C@@H](C)C(=O)[C@H](C)[C@@H](OC(=O)NCCn2cc(-c3cccc(F)c3)nn2)[C@]1(C)O | 256 (≈ 312 µM) | 128 (≈ 156 µM) | 128 (≈ 156 µM) | 128 (≈ 156 µM) | 8 (≈ 9.76 µM) | > 128 | 256 (≈ 312 µM) | 4 (≈ 4.88 µM) |  |  |
| CC[C@H]1OC(=O)[C@H](C)C(=O)[C@H](C)[C@@H](O[C@H]2O[C@@H](C)C[C@@H](N(C)C)[C@@H]2O)[C@](C)(OC)C[C@@H](C)C(=O)[C@H](C)[C@@H](OC(=O)NCCn2cc(-c3ccc(-c4ccccc4)cc3)nn2)[C@]1(C)O | 128 (≈ 146 µM) | 32 (≈ 36.4 µM) | 64 (≈ 72.9 µM) | 128 (≈ 146 µM) | 32 (≈ 36.4 µM) | > 128 | 128 (≈ 146 µM) | 4 (≈ 4.56 µM) | 8 - 16 | 8 - 16 |
| CC[C@H]1OC(=O)[C@H](C)C(=O)[C@H](C)[C@@H](O[C@H]2O[C@@H](C)C[C@@H](N(C)C)[C@@H]2O)[C@](C)(OC)C[C@@H](C)C(=O)[C@H](C)[C@@H](OC(=O)NCCn2cc(-c3ccc(C)cc3)nn2)[C@]1(C)O | > 256 | 256 (≈ 314 µM) | 256 (≈ 314 µM) | 128 (≈ 157 µM) | 32 (≈ 39.2 µM) | > 128 | > 256 | 8 (≈ 9.8 µM) |  |  |
| CC[C@H]1OC(=O)[C@H](C)C(=O)[C@H](C)[C@@H](O[C@H]2O[C@@H](C)C[C@@H](N(C)C)[C@@H]2O)[C@](C)(OC)C[C@@H](C)C(=O)[C@H](C)[C@@H](OC(=O)NCCCn2cc(-c3ccccc3)nn2)[C@]1(C)O | 256 (≈ 314 µM) | 64 (≈ 78.4 µM) | 64 (≈ 78.4 µM) | 128 (≈ 157 µM) | 8 (≈ 9.8 µM) | > 128 | 128 (≈ 157 µM) | 8 (≈ 9.8 µM) |  |  |
| CC[C@H]1OC(=O)[C@H](C)C(=O)[C@H](C)[C@@H](O[C@H]2O[C@@H](C)C[C@@H](N(C)C)[C@@H]2O)[C@](C)(OC)C[C@@H](C)C(=O)[C@H](C)[C@@H](OC(=O)NCCn2cc(-c3ccccc3Cl)nn2)[C@]1(C)O | 256 (≈ 306 µM) | 64 (≈ 76.5 µM) | 128 (≈ 153 µM) | 128 (≈ 153 µM) | 8 (≈ 9.56 µM) | > 128 | 128 (≈ 153 µM) | 4 (≈ 4.78 µM) |  |  |

From ChEMBL document CHEMBL4602639, “A novel series of 11-O-carbamoyl-3-O-descladinosyl clarithromycin derivatives bearing 1,2,3-triazole group: Design, synthesis and antibacterial evaluation” (2020)
